pIC50: −log10 of the molar value.
What was measured:
uterus = assay: Uterine weight in ovariectomized rats, 4 days daily oral dosing (postmenopausal model); type: in vivo, Sprague Dawley rats; details: for Uterine Weight % Increase verses ovariectomized controls: daily for 4 days, OVX rats
Protocol: (§1) In the examples illustrating the methods, a postmenopausal model was used in which effects of different treatments upon circulating lipids were determined.
(§2) Seventy-five day old female Sprague Dawley rats (weight range of 200 to 225 g) were obtained from Charles River Laboratories (Portage, Mich.). The animals were either bilaterally ovariectomized (OVX) or exposed to a Sham surgical procedure at Charles River Laboratories, and then shipped after one week. Upon arrival, they were housed in metal hanging cages in groups of 3 or 4 per cage and had ad libitum access to food (calcium content approximately 0.5%) and water for one week. Room temperature was maintained at 22.2°±1.7° C. with a minimum relative humidity of 40%. The photoperiod in the room was 12 hours light and 12 hours dark.
(§3) Dosing Regimen Tissue Collection. After a one week acclimation period (therefore, two weeks post-OVX) daily dosing with test compound was initiated. 17α-ethynyl estradiol or the test compound were given orally, unless otherwise stated, as a suspension in 1% carboxymethylcellulose or dissolved in 20% cyclodextrin. Animals were dosed daily for 4 days. Following the dosing regimen, animals were weighed and anesthetized with a ketamine: xylazine (2:1, V:V) mixture and a blood sample was collected by cardiac puncture. The animals were then sacrificed by asphyxiation with CO2, the uterus was removed through a midline incision, and a wet uterine weight was determined.
(§4) Source of Compound: 17α-ethynyl estradiol was obtained from Sigma Chemical Co., St. Louis, Mo.
(§5) Data presented in Table 1 below show comparative results among ovariectomized rats, rats treated with 17α-ethynyl estradiol (EE2; an orally available form of estrogen), and rats treated with certain compounds of the instant invention. […] This uterine response to estrogen is well recognized in the art.
(§6) The data presented in Table 1 below reflects the response of 5 to 6 rats per treatment.

Eosinophil peroxidase = assay: Uterine Eosinophil Peroxidase (EPO) Assay in ovariectomized rats; type: in vivo, Sprague Dawley rats; details: for Uterine Eosinophil peroxidase, Vmax: daily for 4 days, OVX rats
Protocol: as §1, §2, §3
Uterine Eosinophil Peroxidase (EPO) Assay. Uteri were kept at 4° C. until time of enzymatic analysis. The uteri were then homogenized in 50 volumes of 50 mM Tris buffer (pH-8.0) containing 0.005% Triton X-100. Upon addition of 0.01% hydrogen peroxide and 10 mM O-phenylenediamine (final concentrations) in Tris buffer, increase in absorbance was monitored for one minute at 450 nm. The presence of eosonophils in the uterus is an indication of estrogenic activity of a compound. The maximal velocity of a 15 second interval was determined over the initial, linear portion of the reaction curve.
as §4
As is expressed in the data below, estrogenicity also was assessed by evaluating the adverse response of eosinophil infiltration into the uterus.
as §6

serum cholesterol = assay: Serum cholesterol in ovariectomized rats (Cholesterol Analysis); type: in vivo, Sprague Dawley rats; details: for Serum Cholest. % Decrease verses ovariectomized controls: daily for 4 days, OVX rats
Protocol: as §1, §2, §3
Cholesterol Analysis. Blood samples were allowed to clot at room temperature for 2 hours, and serum was obtained following centrifugation for 10 minutes at 3000 rpm. Serum cholesterol was determined using a Boehringer Mannheim Diagnostics high performance cholesterol assay. Briefly the cholesterol was oxidized to cholest-4-en-3-one and hydrogen peroxide. The hydrogen peroxide was then reacted with phenol and 4-aminophenazone in the presence of peroxidase to produce a p-quinone imine dye, which was read spectrophotemetrically at 500 nm. Cholesterol concentration was then calculated against a standard curve.
as §4, §5, §6

femur = assay: Osteoporosis Test Procedure: bone protection in ovariectomized rats, 35 days oral; type: in vivo; details: for Femur BMD % protection / Femur. % Protection (x-ray image): 35 days, relative to ovariectomy
Protocol: Following the General Preparation Procedure, infra, the rats are treated daily for 35 days (6 rats per treatment group) and sacrificed by carbon dioxide asphyxiation on the 36th day. The 35 day time period is sufficient to allow maximal reduction in bone density, measured as described herein. At the time of sacrifice, the uteri are removed, dissected free of extraneous tissue, and the fluid contents are expelled before determination of wet weight in order to confirm estrogen deficiency associated with complete ovariectomy. […] The uteri are then placed in 10% neutral buffered formalin to allow for subsequent histological analysis. The right femurs are excised and digitilized x-rays generated and analyzed by an image analysis program (NIH image) at the distal metaphysis. The proximal aspect of the tibiae from these animals are also scanned by quantitative computed tomography. In accordance with the above procedures, compounds of the instant invention and ethynyl estradiol (EE2) in 20% hydroxypropyl β-cyclodextrin are orally administered to test animals. Distal femur metaphysis and proximal tibiae data are the results of formula I compound treatments compared to intact and ovariectomized test animals. Results are reported as percent protection relative to ovariectomy in Table 2 below.

[1] = test system: MCF-7 breast adenocarcinoma cells; assay: MCF-7 Proliferation Assay (tritiated thymidine incorporation); type: cell-based; details: Homo sapiens, MCF7; 48 hours with drug, then tritiated thymidine 4 hours; read-out: ED50 (MCF-7 proliferation)
Protocol: MCF-7 breast adenocarcinoma cells (ATCC HTB 22) were maintained in MEM (minimal essential medium, phenol red-free, Sigma, St. Louis, Mo.) supplimented with 10% fetal bovine serum (FBS) (V/V), L-glutamine (2 mM), sodium pyruvate (1 mM), HEPES {(N-[2-hydroxyethyl]piperazine-N'-[2-ethanesulfonic acid]10 mM}, non-essential amino acids and bovine insulin (1 μg/mL) (maintenance medium). Ten days prior to assay, MCF-7 cells were switched to maintenance medium supplemented with 10% dextran coated charcoal stripped fetal bovine serum (DCC-FBS) assay medium) in place of 10% FBS to deplete internal stores of steroids. MCF-7 cells were removed from maintenance flasks using cell dissociation medium (Ca^++ /Mg^++ free HBSS (phenol red-free) supplemented with 10 mM HEPES and 2 mM EDTA). Cells were washed twice with assay medium and adjusted to 80,000 cells/mL. Approximately […] (8,000 cells) were added to flat-bottom microculture wells (Costar 3596) and incubated at 37° C. in a 5% CO2 humidified incubator for 48 hours to allow for cell adherence and equilibration after transfer. Serial dilutions of drugs or DMSO as a diluent control were prepared in assay medium and […] to triplicate microcultures followed by […] assay medium for a final volume of […]. After an additional 48 hours at 37° C. in a 5% CO2 humidified incubator, microcultures were pulsed with tritiated thymidine (1 uCi/well) for 4 hours. Cultures were terminated by freezing at -70° C. for 24 hours followed by thawing and harvesting of microcultures using a Skatron Semiautomatic Cell Harvester. Samples were counted by liquid scintillation using a Wallace BetaPlace β counter. Results in Table 3 below show the ED50 (nM) for certain compounds of the instant invention: […]

SMILES	pIC50 [1]	Uterine Weight % Increase verses ovariectomized controls (uterus; 0.1 mg/kg PO)	Uterine Eosinophil peroxidase, Vmax (Eosinophil peroxidase; 0.1 mg/kg PO)	Serum Cholest. % Decrease verses ovariectomized controls (serum cholesterol; 0.1 mg/kg PO)	Uterine Weight % Increase verses ovariectomized controls (uterus; 1 mg/kg PO)	Uterine Weight % Increase verses ovariectomized controls (uterus; 10 mg/kg PO)	Uterine Eosinophil peroxidase, Vmax (Eosinophil peroxidase; 1 mg/kg PO)	Uterine Eosinophil peroxidase, Vmax (Eosinophil peroxidase; 10 mg/kg PO)	Serum Cholest. % Decrease verses ovariectomized controls (serum cholesterol; 1 mg/kg PO)	Serum Cholest. % Decrease verses ovariectomized controls (serum cholesterol; 10 mg/kg PO)	also measured
C#C[C@]1(O)CC[C@H]2[C@@H]3CCc4cc(O)ccc4[C@H]3CC[C@@]21C [EE2, 17α-ethynyl estradiol, reference compound]	–	169.5%	144.0	90.5%	–	–	–	–	–	–	uterine weight, in words (uterus; oral, compared to ovariectomized animals): uterine weight was substantially greater than the uterine weight of ovariectomized test animals; eosinophil infiltration into the uterus, in words (Eosinophil peroxidase; stromal layer of ovariectomized rats): substantial, expected increase in eosinophil infiltration; serum cholesterol, in words (serum cholesterol; oral, compared to ovariectomized control animals): caused a decrease in serum cholesterol when orally administered at 0.1 mg/kg/day; Femur BMD % protection (femur; 0.1 mg/kg oral): 76.3%; Femur. % Protection (x-ray image) (femur; 0.1 mg/kg oral): 99.1%; prevention of bone loss, in words (femur; oral, OVX rats, femur density): prevents this loss
COc1ccc2c(c1)C(O)(c1ccc(OCCN3CCCCC3)cc1)c1c-2sc2cc(OC)ccc12 (stereo not drawn) [Example 3B, 10-[4-[2-(1-Piperidinyl)ethoxy]phenyl]-2,7-dimethoxy benzo[b]indeno[2,1-d]thiophen-10-ol]	–	50.4%	36.0	43.5%	43.0%	28.2%	36.6	19.2	62.5%	69.2%	–
COc1ccc2c3c(sc2c1)-c1ccccc1C3c1ccc(OCCN2CCCCC2)cc1 (stereo not drawn) [Example 5A, 10-[4-[2-(1-Piperidinyl)ethoxy]phenyl]-7-methoxy benzo[b]indeno[2,1-d]thiophene]	–	33.8%	6.4	59.1%	63.5%	92.9%	35.4	31.8	74.4%	60.3%	–

Now from value to compound, other results behind:

pIC50 [1]	SMILES	Uterine Weight % Increase verses ovariectomized controls (uterus; 0.1 mg/kg PO)	Uterine Eosinophil peroxidase, Vmax (Eosinophil peroxidase; 0.1 mg/kg PO)	Serum Cholest. % Decrease verses ovariectomized controls (serum cholesterol; 0.1 mg/kg PO)	Uterine Weight % Increase verses ovariectomized controls (uterus; 1 mg/kg PO)	Uterine Weight % Increase verses ovariectomized controls (uterus; 10 mg/kg PO)	Uterine Eosinophil peroxidase, Vmax (Eosinophil peroxidase; 1 mg/kg PO)	Uterine Eosinophil peroxidase, Vmax (Eosinophil peroxidase; 10 mg/kg PO)	Serum Cholest. % Decrease verses ovariectomized controls (serum cholesterol; 1 mg/kg PO)	Serum Cholest. % Decrease verses ovariectomized controls (serum cholesterol; 10 mg/kg PO)	also measured
6.70	COc1ccc2c(c1)-c1sc3cc(OC)ccc3c1C2c1ccc(OCCN2CCCCC2)cc1 (stereo not drawn) [Example 1A, 10-[4-[2-(1-Piperidinyl)ethoxy]phenyl]-3,7-dimethoxybenzo[b]indeno[2,1-d]thiophene]	19.2%	7.2	59.1%	21.6%	26.8%	30.3	21.9	47.7%	68.7%	–
7.00	c1ccc2c(c1)-c1sc3ccccc3c1C2c1ccc(OCCN2CCCCC2)cc1 (stereo not drawn) [Example 1B, 10-[4-[2-(1-Piperidinyl)ethoxy]phenyl]benzo[b] indeno[2,1-d]thiophene]	21%	4.8	56.8%	31.8%	27.7%	34.2	50.4	71.0%	75.3%	–
10.00	Oc1ccc2c(c1)-c1sc3cc(O)ccc3c1C2c1ccc(OCCN2CCCCC2)cc1 (stereo not drawn) [Example 2, 10-[4-[2-(1-Piperidinyl)ethoxy]phenyl]-3,7-dihydroxy benzo[b]indeno[2,1-d]thiophene]	14.6%	4.8	41.4%	25.6%	18.3%	24.0	23.4	52.5%	66.3%	–
8.00	Cl.Oc1ccc2c3c(sc2c1)-c1ccccc1C3c1ccc(OCCN2CCCCC2)cc1 (stereo not drawn) [Example 6, 10-[4-[2-(1-Piperidinyl)ethoxy]phenyl]-7-hydroxy benzo[b]indeno[2,1-d]thiophene hydrochloride]	32.5%	2.9	1.3%	67.4%	54.0%	3.7	29.8	40.6%	69.9%	Femur BMD % protection (femur; 0.01 mg/kg oral): 40.4%; Femur. % Protection (x-ray image) (femur; 0.01 mg/kg oral): 53.8%; Femur BMD % protection (femur; 0.1 mg/kg oral): 46.6%; Femur. % Protection (x-ray image) (femur; 0.1 mg/kg oral): 39.2%; Femur BMD % protection (femur; 1 mg/kg oral): 66.6%; Femur. % Protection (x-ray image) (femur; 1 mg/kg oral): 73.4%; Femur BMD % protection (femur; 10 mg/kg oral): 64.0%; Femur. % Protection (x-ray image) (femur; 10 mg/kg oral): 48.2%

— patent US5856341A, “Benzo [B] indeno [2,1-D] thiophene compounds, intermediates, processes, compositions and methods” (Eli Lilly and Company, priority 1997, dated 1999)
